Results reported in US6420428B1, “Treatment and prevention of hepatic disorders” (The Regents of the University of California, priority 1996, dated 2002).

Key:
[1] = system: cyclic nucleotide phosphodiesterases; details: cited from earlier work
[2] = system: 3T3 NIH fibroblasts; test: Fibroblast proliferation in culture; type: cell-based; details: for effect on fibroblast growth induced by cytokines PDGF, EGF and FGF: data not shown
Procedure: The biological activities of pentoxifylline and metabolite 5 were further studied by measuring their effects on the stimulation of fibroblast proliferation. For this study, 3T3 NIH fibroblasts were cultured in the presence or absence of pentoxifylline or metabolite 5.

[3] = system: dermal fibroblasts; details: cited from earlier work
[4] = system: malondialdehyde-protein adducts; test: Hepatic lipid peroxidation (malondialdehyde-protein adducts, immunohistochemistry) in CCl4-treated rats; type: in vivo, Sprague-Dawley rats; details: 48 h
Procedure: (§1) Forty-eight hours after the CCl4 or mineral oil injection (and 4 hours after the [^3H]thymidine injection), the rats were sacrificed. Thereafter, liver tissues were promptly removed, and a piece was fixed in 10% formaldehyde and embedded in paraffin for immunohistochemical staining.
Liver tissue was immunostained with antisera, specific for malondialdehyde-lysine adducts, raised against malondialdehyde-lysine adducts as described by Houglum et al., J Clin Invest 96:2269-76 (1995). Briefly, guinea pig LDL was isolated and modified with MDA, and the homologous modified LDL was used to immunize guinea pigs.
A phase-contrast microscope was utilized for hematoxylin/eosin staining and immunohistochemistry with alkaline phosphatase secondary antibodies (Vector Laboratories). Cytochromes utilized were alkaline phosphatase with fast green as counterstain (Sigma Chemical Co.). Negative control samples were processed in parallel under the same conditions, but with omission of the primary antibody.
In order to ascertain whether or not the prevention of activation observed with pentoxifylline resulted from interfering with the hepatocellular injury induced by CCl4, the degree of hepatocellular injury and lipid peroxidation were determined in those animals. […] As set forth above, protein adducts with malondialdehyde were detected using specific antibodies against malondialdehyde-lysine epitopes.

[5] = system: α-smooth muscle actin (α-SMA) expression in hepatic stellate cells; test: Stellate cell activation: α-SMA expression by Western blot of freshly isolated stellate cells, CCl4-treated rats; type: in vivo, Sprague-Dawley rats; details: 200 mg/kg i.p., 48 h, metabolite 5 given as ester prodrug
Procedure: (§2) At least four Sprague-Dawley (Charles River Breeding Labs) male rats (50 to 60 g) were assigned to each of four testing groups (designated as “CCl4”, “pentoxifylline”, “metabolite 5”, and “control”). Each rat received a single intraperitoneal injection of CCl4 in mineral oil (1:3; v/v) at a dose of 2 mL/kg body weight (CCl4, pentoxifylline, and metabolite 5 groups), or mineral oil only (control group). In addition, animals received intraperitoneal injections (100 μL) of saline (control and CCl4 groups), 200 mg/kg pentoxifylline (pentoxifylline group), or 200 mg/kg of the ester prodrug of pentoxifylline metabolite 5 (metabolite 5 group) at the following times with respect to mineral oil or CCl4 administration: −4 h, +8 h, +20 h, +32 h, and +44 h.
Hepatic stellate cells were prepared from rats by in situ perfusion of the liver and single-step density Nycodenz® gradient (Accurate Chemical & Scientific Corp.). […] The cells were mixed with 9.5 mL Hank's buffer containing 3 g/L BSA and 8 mL of 28.7% (w/v) Nycodenz® in sodium-free Hank's buffer. The gradient was generated by placing 6 mL of the Hank's/BSA solution on top of the liver cell mixture in a 50 mL centrifugation tube. […]

[6] = phosphorus-induced hepatocellular necrosis; cited from earlier work
[7] = system: α-SMA-E box; test: Mobility shift analysis of stellate cell nuclear extracts with α-SMA-E box oligonucleotide; type: in vivo, Sprague-Dawley rats; details: CCl4-treated rats, gel shift
Procedure: as §2
Briefly, cells were homogenized in 1 mL of 5% citric acid, 0.5% NP-40, 10 mM sodium fluoride and 10 mM sodium pyrophosphate with a glass Dounce homogenizer with a loose fitting pestle. The homogenized cells were placed above a cushion consisting of 30% sucrose and 1% citric acid. The nuclei were precipitated by a 4,000 g centrifugation at 4° C. for 30 min. and frozen at −70° C.
Gel retardation analysis of protein-DNA complexes were performed with an oligonucleotide of the putative DNA binding site. […]

[8] = rat, in vivo
Procedure: At least four Sprague-Dawley (Charles River Breeding Labs) male rats (50 to 60 g) were assigned to each of four testing groups (designated as “CCl4”, “pentoxifylline”, “metabolite 5”, and “control”). Each rat received a single intraperitoneal injection of CCl4 in mineral oil (1:3; v/v) at a dose of 2 mL/kg body weight (CCl4, pentoxifylline, and metabolite 5 groups), or mineral oil only (control group). In addition, animals received intraperitoneal injections (100 μL) of saline (control and CCl4 groups), 200 mg/kg pentoxifylline (pentoxifylline group), or 200 mg/kg of the ester prodrug of pentoxifylline metabolite 5 (metabolite 5 group) at the following times with respect to mineral oil or CCl4 administration: −4 h, +8 h, +20 h, +32 h, and +44 h. The last injection (at +44h) included 30 μCi of 6-[^3H]thymidine (DuPont).

[9] = system: cAMP phosphodiesterase activity in hepatic stellate cells; test: CREB phosphorylation at Ser 133 in stellate cell nuclear extracts (Western blot) as measure of cAMP phosphodiesterase inhibition in vivo; parameters: species or system Sprague-Dawley rats; details: for expression of CREB-PSer133 in stellate cell nuclear extracts: CCl4-treated rats, Western blot
Procedure: Stellate cells were identified by their typical autofluorescence at 328 nm excitation wavelength, staining of lipid droplets by oil red, and immunohistochemistry with a monoclonal antibody against desmin. [Bedossa et al., Hepatology 19(5):1262-71 (1994)]. Detection of α-SMA, malondialdehyde-protein adducts, and CREB-PSer 133 in stellate cells extracts was performed by Western blot [Buck et al., EMBO J. 13:851-60 (1994)], and using antibodies directed against α-SMA (Vector Laboratories), malondialdehyde-lysine epitopes as described below [Trautwein et al., J. Clin. Invest. 93:2554-61 (1990)], or CREB-PSer 133 (Upstate Biotechnology).
Next, pentoxifylline and metabolite 5 were evaluated to determine whether they inhibit cAMP phosphodiesterase activity in hepatic stellate cells in vivo leading to an increase in protein kinase A-mediate phosphorylation. Because this signal transduction pathway triggers site-specific phosphorylation of the nuclear transcription factor CREB (cAMP responsive element binding protein) on Serine 133 [Yamamoto et al., Nature 334:494-98 (1988)], the induction of CREB phosphorylation at Ser 133 was analyzed in nuclear extracts from freshly isolated stellate cells using an antibody against the activated, phosphorylated form of CREB [Ginty et al., Science 260:238-42 (1993)].
FIG. 4B is a Western blot indicating the results of phosphorylation of CREB at Serine 133 in stellate cell nuclear extracts with control (lane 1), CCl4 (lane 2), CCl4/pentoxifylline (lane 3), and CCl4/metabolite 5 (lane 4) animals. […] Molecular markers (kilodaltons) are shown on the right margin of FIG. 4B. In addition to recognizing CREB, anti-CREB-PSer133 detected two other proteins. These are most likely members of the CREB-ATF family, ATF-1 and CREM, that have phosphoacceptor sequences similar to that of CREB-PSer133 [Ginty et al., Science 260:238-42 (1993)]. […] Neither CREB PSer133 nor phosphorylated members of the CREB-ATF family were detected in stellate cell nuclear extracts from CCl4-treated animals (lane 2).

[10] = system: hepatic stellate cells; test: Stellate cell proliferation ([3H]thymidine incorporation into stellate cell DNA) in CCl4-treated rats; type: in vivo, Sprague-Dawley rats; details: 200 mg/kg i.p. at -4, +8, +20, +32, +44 h, 48 h, metabolite 5 given as ester prodrug
Procedure: as §1
Hepatic stellate cells were prepared from rats by in situ perfusion of the liver and single-step density Nycodenz® gradient (Accurate Chemical & Scientific Corp.). [See Bedossa et al., Hepatology 19(5):1262-71 (1994); Brenner et al., Mol. Biol. Med. 7:105-15 (1990); Schäfer et al., Hepatology 7(4):680-87 (1987)]. The cells were mixed with 9.5 mL Hank's buffer containing 3 g/L BSA and 8 mL of 28.7% (w/v) Nycodenz® in sodium-free Hank's buffer. […]
Nuclei were prepared by a modification of the procedure described previously, e.g., by Buck et al., EMBO J. 13:851-60 (1994). […] DNA was isolated, extracted and counted for [^3H]thymidine incorporation.
Stellate cell proliferation was assessed by the incorporation of [^3H]thymidine. Stellate cell activation was evaluated by the expression of α-smooth muscle actin (α-SMA). […]
The specific activity of stellate cell DNA, an index of S-phase labeling, was determined from at least four rats in each experimental group after 4 hours of labeling with [^3H]thymidine at 1 PM. […]

[11] = system: NFkB; test: Mobility shift analysis of stellate cell nuclear extracts with NFkB oligonucleotide; type: in vivo, Sprague-Dawley rats; details: CCl4-treated rats, gel shift
Procedure: Gel retardation analysis of protein-DNA complexes were performed with an oligonucleotide of the putative DNA binding site.
For these analyses, equal amounts of nuclear protein were incubated with 1 ng of ^32P-labeled-NFkB (FIG. 3A) or ^32P-labeled-α-SMA-E box (FIG. 3B) oligonucleotides. The DNA-protein complexes were resolved by electrophoresis on a 6% nondenaturing polyacrylamide gel, the position of the bound DNA being indicated by arrows in FIGS. 3A-B. As described further below, some samples were incubated with specific antibodies or unlabeled oligonucleotide.
More specifically, FIG. 3A depicts DNA-protein complexes resolved by gel electrophoresis for representative samples of control (lane 2), CCl4 (lane 3), CCl4/pentoxifylline (lane 4); CCl4/metabolite 5 (lane 5); and CCl4+NFkB oligonucleotide (lane 6). On lane 1, the ^32P-labeled-NFkB probe was processed without nuclear extracts. […] The complex of ^32P-labeled NFkB oligonucleotides and nuclear extracts from activated stellate cells was competed by a NFkB cognate oligonucleotide (lane 6).

[12] = after pentoxifylline; cited from earlier work

Row | Structure (SMILES) | phosphodiesterase inhibition [1] | effect on fibroblast growth in logarithmic phase [2] | effect on fibroblast growth induced by cytokines PDGF, EGF and FGF [2] | collagen gene expression [3] | hepatic lipid peroxidation (malondialdehyde-protein adducts) versus CCl4 alone [4] | effect on stellate cell activation (α-SMA expression, Western blot) [5] | hepatic fibrosis [6] | effect on complex between α-SMA-E box and stellate cell nuclear extracts [7] | toxicity of the dose to the animals [8] | expression of CREB-PSer133 in stellate cell nuclear extracts [9] | effect on stellate cell proliferation (stellate cell DNA [3H]thymidine specific activity) [10] | effect on NFkB nuclear binding activity of stellate cells [11] | plasma concentration relative to pentoxifylline [12] | phosphodiesterase inhibitory activity ([9]; rat, in vivo)
1 | CC(=O)CCCCn1c(=O)c2c(ncn2C)n(C)c1=O [pentoxifylline, 1-(5-oxohexyl)-3,7-dimethylxanthine] | non-specific inhibitor of cyclic nucleotide phosphodiesterases | block fibroblast growth in logarithmic phase | blocked fibroblast growth | inhibits collagen gene expression | comparable | prevented the activation of stellate cells induced by CCl4 | prevented hepatic fibrosis | prevented the formation of a complex | not toxic | markedly increased | abolished the proliferation of stellate cells | prevented NFkB nuclear activity induced by CCl4 |  | 
2 | Cn1cnc2c1c(=O)n(CCCC(=O)O)c(=O)n2C [metabolite 5, 1-(3-carboxypropyl)-3,7-dimethylxanthine] |  | block fibroblast growth in logarithmic phase | blocked fibroblast growth |  | did not affect | prevented the activation of stellate cells induced by CCl4 |  | prevented the formation of a complex |  | not detected |  | prevented NFkB nuclear activity induced by CCl4 | five times greater | lacks phosphodiesterase inhibitory activity
